Results from ChEMBL document CHEMBL5512655, “Discovery of indolylacryloyl-derived oxacins as novel potential broad-spectrum antibacterial candidates” (Eur J Med Chem, 2024).
Values after ≈ are worked out from the molar mass of the structure shown.

How the values were obtained:
Assay type in all cases: functional
Staphylococcus aureus [1] = assay: Antibacterial activity against Staphylococcus aureus assessed as inhibition of bacterial growth measured after 24 hrs incubation
Staphylococcus aureus [2] = assay: Antibacterial activity against methicillin-resistant Staphylococcus aureus N315 assessed as inhibition of bacterial growth measured after 24 hrs incubation
Klebsiella pneumoniae = assay: Antibacterial activity against Klebsiella pneumonia assessed as inhibition of bacterial growth measured after 24 hrs incubation
Enterococcus faecalis = assay: Antibacterial activity against Enterococcus faecalis assessed as inhibition of bacterial growth measured after 24 hrs incubation
Pseudomonas aeruginosa [3] = assay: Antibacterial activity against Pseudomonas aeruginosa ATCC 27853 assessed as inhibition of bacterial growth measured after 24 hrs incubation
Staphylococcus aureus [4] = assay: Antibacterial activity against Staphylococcus aureus ATCC 25923 assessed as inhibition of bacterial growth measured after 24 hrs incubation
Escherichia coli [5] = assay: Antibacterial activity against Escherichia coli assessed as inhibition of bacterial growth measured after 24 hrs incubation
Staphylococcus aureus [6] = assay: Antibacterial activity against Staphylococcus aureus ATCC 29213 assessed as inhibition of bacterial growth measured after 24 hrs incubation
Escherichia coli [7] = assay: Antibacterial activity against Escherichia coli ATCC 25922 assessed as inhibition of bacterial growth measured after 24 hrs incubation
Pseudomonas aeruginosa [8] = assay: Antibacterial activity against Pseudomonas aeruginosa assessed as inhibition of bacterial growth measured after 24 hrs incubation
Acinetobacter baumannii = assay: Antibacterial activity against Acinetobacter baumannii assessed as inhibition of bacterial growth measured after 24 hrs incubation

Compound	MIC (Staphylococcus aureus [1]) [µg/mL]	MIC (Staphylococcus aureus [2]) [µg/mL]	MIC (Klebsiella pneumoniae) [µg/mL]	MIC (Enterococcus faecalis) [µg/mL]	MIC (Pseudomonas aeruginosa [3]) [µg/mL]	MIC (Staphylococcus aureus [4]) [µg/mL]	MIC (Escherichia coli [5]) [µg/mL]	MIC (Staphylococcus aureus [6]) [µg/mL]	MIC (Escherichia coli [7]) [µg/mL]	MIC (Pseudomonas aeruginosa [8]) [µg/mL]	MIC (Acinetobacter baumannii) [µg/mL]
CCCCCCCCn1cc(C(=O)O)c(=O)c2cc(F)c(N3CCN(C(=O)/C(C#N)=C/c4cn(CC(=O)OCC)c5ccccc45)CC3)cc21	32 (≈ 46.8 µM)	8 (≈ 11.7 µM)	4 (≈ 5.85 µM)	1 (≈ 1.46 µM)	16 (≈ 23.4 µM)	4 (≈ 5.85 µM)	0.25 (≈ 0.366 µM)	256 (≈ 374 µM)	0.5 (≈ 0.731 µM)	16 (≈ 23.4 µM)	2 (≈ 2.92 µM)
CCn1cc(C(=O)O)c(=O)c2cc(F)c(N3CCN(C(=O)/C(C#N)=C/c4cn(Cc5ccccc5F)c5ccccc45)CC3)cc21	32 (≈ 51.5 µM)	0.25 (≈ 0.402 µM)	1 (≈ 1.61 µM)	16 (≈ 25.7 µM)	0.5 (≈ 0.804 µM)	16 (≈ 25.7 µM)	0.5 (≈ 0.804 µM)	32 (≈ 51.5 µM)	0.25 (≈ 0.402 µM)	1 (≈ 1.61 µM)	0.5 (≈ 0.804 µM)
